In ChEMBL document CHEMBL1201862, “PubChem BioAssay data set” (2004):
“And” between values parts separate entries of the source, which are not always exact repeats. Equal entries are not always repeated. The source made the active and inactive calls.

Columns and labels:
Nonstructural protein 1 = Nonstructural protein 1 (Influenza A virus, UniProt Q194T2); assay type: functional, Influenza A virus (A/California/07/2009(H1N1))
[1] = target: Induced myeloid leukemia cell differentiation protein Mcl-1 (Homo sapiens, UniProt Q07820); assay type: functional
[2] = microbe, parasite or virus in culture; assay type: functional; conditions: Mycobacterium tuberculosis
Leucine aminopeptidase = target: T1, Leucine aminopeptidase (Plasmodium falciparum 3D7, UniProt Q8IL11); test: P. falciparum M17LAP inhibitors, primary screen, biochemical, fluorogenic H-Leu-NHMec substrate, 1536-well (AID 1619); assay type: functional
T1 sequence (Q8IL11 whole entry): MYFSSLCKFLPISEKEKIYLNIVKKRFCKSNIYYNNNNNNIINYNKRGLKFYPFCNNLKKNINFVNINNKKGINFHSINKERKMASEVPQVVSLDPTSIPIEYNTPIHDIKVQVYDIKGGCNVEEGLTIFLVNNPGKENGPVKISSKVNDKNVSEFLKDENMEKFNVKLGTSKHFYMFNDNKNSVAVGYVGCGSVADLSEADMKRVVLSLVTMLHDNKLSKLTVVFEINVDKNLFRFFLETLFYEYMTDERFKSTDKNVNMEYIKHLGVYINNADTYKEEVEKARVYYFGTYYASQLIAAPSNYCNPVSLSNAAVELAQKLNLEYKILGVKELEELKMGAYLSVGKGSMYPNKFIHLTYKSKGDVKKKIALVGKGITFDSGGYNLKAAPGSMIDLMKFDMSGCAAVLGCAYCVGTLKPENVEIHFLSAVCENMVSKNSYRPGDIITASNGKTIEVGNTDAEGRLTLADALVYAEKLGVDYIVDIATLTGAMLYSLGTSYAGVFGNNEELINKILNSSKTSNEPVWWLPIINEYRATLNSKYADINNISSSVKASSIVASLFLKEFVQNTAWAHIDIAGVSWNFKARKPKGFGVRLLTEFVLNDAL

[3] = target: T2, Voltage-gated N-type calcium channel alpha-1B subunit/Amyloid beta A4 precursor protein-binding family A member 1 (Homo sapiens, UniProt Q00975+Q02410); assay type: protein assay
[4] = HIV-1 Env-mediated cell fusion inhibitors, dose response, CCR5-tropic Env (AID 2279); assay type: functional
Protein RecA = target: T3, Protein RecA (Mycobacterium tuberculosis, UniProt P9WHJ3); test: Fluorescence Cell-Free Homogeneous Dose Retest to Identify Inhibitors of RecA-Intein Splicing Activity. [Related pubchem assays (depositor defined):AID2097, AID2223, AID489010, AID492950]; assay type: functional
T3 sequence (P9WHJ3 whole entry): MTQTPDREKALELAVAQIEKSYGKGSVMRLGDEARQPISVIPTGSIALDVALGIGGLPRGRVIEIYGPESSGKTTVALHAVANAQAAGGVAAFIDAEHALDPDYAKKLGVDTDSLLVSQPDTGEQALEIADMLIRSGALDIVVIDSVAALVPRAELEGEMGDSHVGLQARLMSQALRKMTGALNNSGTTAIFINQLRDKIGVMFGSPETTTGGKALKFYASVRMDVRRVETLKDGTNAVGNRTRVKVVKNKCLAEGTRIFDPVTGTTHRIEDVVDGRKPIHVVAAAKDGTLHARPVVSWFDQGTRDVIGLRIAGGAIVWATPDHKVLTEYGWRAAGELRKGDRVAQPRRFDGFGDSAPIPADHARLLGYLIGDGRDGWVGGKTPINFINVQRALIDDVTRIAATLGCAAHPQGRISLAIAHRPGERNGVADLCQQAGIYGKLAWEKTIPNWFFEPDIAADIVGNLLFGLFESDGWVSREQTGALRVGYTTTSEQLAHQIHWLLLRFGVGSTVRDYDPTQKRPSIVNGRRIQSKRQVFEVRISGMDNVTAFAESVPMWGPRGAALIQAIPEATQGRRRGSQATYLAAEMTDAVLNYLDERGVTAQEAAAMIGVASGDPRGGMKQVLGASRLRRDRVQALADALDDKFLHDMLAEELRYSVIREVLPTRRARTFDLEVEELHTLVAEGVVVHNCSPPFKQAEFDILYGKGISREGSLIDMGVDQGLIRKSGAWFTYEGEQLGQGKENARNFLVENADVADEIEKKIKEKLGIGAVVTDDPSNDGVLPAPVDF

[5] = target: T4, Replicative DNA helicase DnaB (Mycobacterium tuberculosis, UniProt P9WMR3); test: DnaB intein splicing inhibitors, dose response, biochemical, cell-free fluorescence (AID 449749); assay type: functional
T4 sequence (P9WMR3 whole entry): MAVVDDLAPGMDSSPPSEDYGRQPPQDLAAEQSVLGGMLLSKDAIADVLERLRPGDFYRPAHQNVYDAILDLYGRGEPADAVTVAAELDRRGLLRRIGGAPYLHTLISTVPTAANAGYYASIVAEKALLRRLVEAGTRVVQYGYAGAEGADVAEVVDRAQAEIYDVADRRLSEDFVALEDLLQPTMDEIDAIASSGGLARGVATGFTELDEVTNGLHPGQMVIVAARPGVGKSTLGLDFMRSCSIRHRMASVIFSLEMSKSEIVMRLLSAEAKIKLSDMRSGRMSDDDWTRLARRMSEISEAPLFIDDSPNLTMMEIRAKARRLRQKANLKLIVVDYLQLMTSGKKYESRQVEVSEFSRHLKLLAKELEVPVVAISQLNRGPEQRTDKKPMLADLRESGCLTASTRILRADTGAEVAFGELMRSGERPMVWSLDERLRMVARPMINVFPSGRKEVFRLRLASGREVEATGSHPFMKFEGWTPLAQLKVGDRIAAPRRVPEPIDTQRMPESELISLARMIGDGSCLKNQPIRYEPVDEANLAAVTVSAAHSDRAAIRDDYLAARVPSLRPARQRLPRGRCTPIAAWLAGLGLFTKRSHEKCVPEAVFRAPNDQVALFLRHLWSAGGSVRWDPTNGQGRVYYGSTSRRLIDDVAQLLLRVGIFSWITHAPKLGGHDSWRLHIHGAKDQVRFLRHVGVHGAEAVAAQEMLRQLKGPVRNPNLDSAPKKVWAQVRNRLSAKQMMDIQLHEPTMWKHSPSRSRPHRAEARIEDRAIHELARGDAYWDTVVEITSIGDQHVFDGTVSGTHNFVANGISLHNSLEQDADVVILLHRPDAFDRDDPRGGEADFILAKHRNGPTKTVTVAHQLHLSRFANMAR

[6] = target: G-protein coupled receptor 55 (Homo sapiens, UniProt Q9Y2T6); test: GPR55 antagonists blocking LPI-driven arrestin recruitment, primary screen, imaging, U2OS, beta-arrestin-GFP, LPI agonist (AID 2013); assay type: functional;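 further: antagonist potency measured as reduced agonist-driven arrestin aggregation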
[7] = target: T2, Voltage-gated N-type calcium channel alpha-1B subunit/Amyloid beta A4 precursor protein-binding family A member 1; assay type: protein assay; remark: listed apart in the source
Beta-galactosidase [8] = target: T5, Beta-galactosidase (Escherichia coli, UniProt Q8VNN2); test: beta-galactosidase enzyme inhibitors and activators, dose response, artefact control for CCR6 antagonist project, biochemical, E. coli enzyme, set 3 (AID 504712); assay type: functional
[9] = target: Eukaryotic translation initiation factor 4E (Mus musculus, UniProt P63073); test: eIF4E–eIF4G protein interaction inhibitors, dose response, biochemical, TR-FRET (AID 855); assay type: functional;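 further: potency for disrupting eIF4E binding to eIF4GI seen as loss of FRET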
[10] = target: T6, Neuropeptide Y receptor type 1 (Homo sapiens, UniProt P25929); assay type: functional;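 further: HEK293 cells with a CNG channel challenged with NPY then isoproterenol; potency as antagonist that reverses NPY suppression of cAMP signal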
T6 sequence (P25929 whole entry): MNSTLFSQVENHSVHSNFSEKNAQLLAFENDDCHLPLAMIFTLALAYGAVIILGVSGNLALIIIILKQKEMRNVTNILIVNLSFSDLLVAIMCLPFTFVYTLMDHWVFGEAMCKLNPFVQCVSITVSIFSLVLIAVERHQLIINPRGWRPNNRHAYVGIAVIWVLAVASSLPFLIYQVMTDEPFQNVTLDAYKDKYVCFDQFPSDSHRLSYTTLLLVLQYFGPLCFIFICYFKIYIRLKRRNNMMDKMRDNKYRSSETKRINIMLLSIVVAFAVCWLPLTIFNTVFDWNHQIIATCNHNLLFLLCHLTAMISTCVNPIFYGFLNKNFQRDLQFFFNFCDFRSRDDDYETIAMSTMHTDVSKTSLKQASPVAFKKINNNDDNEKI

[11] = target: T7, Neuropeptide Y receptor type 2 (Homo sapiens, UniProt P49146); assay type: functional, cell-based;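 further: HEK293 cells expressing the receptor and a CNG channel; stimulus was NPY near EC95 followed by isoproterenol to raise cAMP; antagonist potency measured as restoring cAMP signal that NPY suppresses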
T7 sequence (P49146 whole entry): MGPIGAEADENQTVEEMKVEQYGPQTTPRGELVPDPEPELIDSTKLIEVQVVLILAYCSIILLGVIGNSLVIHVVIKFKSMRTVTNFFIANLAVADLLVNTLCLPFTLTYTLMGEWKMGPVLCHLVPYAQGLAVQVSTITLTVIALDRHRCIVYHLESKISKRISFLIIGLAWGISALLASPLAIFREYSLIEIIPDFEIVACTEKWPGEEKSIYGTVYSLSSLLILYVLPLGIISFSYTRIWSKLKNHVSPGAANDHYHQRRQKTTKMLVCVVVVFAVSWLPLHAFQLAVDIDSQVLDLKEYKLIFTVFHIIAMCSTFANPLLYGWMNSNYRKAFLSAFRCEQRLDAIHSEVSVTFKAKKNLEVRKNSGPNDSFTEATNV

Beta-galactosidase [12] = target: T5, Beta-galactosidase; test: PubChem AID 485352; assay type: functional
[13] = enhancers of respiration in Yfh1-depleted yeast, dose response, Friedreich's ataxia, plus single-dose screen (AID 1465); assay type: functional;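 further: yeast depleted of Yfh1p frataxin homolog grown on glycerol needing respiration; WST-1 tetrazolium dye reduction as measure of cellular dehydrogenase metabolic activity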
[14] = target: T8, Type-1 angiotensin II receptor (Homo sapiens, UniProt P30556); test: AT1 receptor antagonists, dose response, selectivity assay for APJ receptor antagonist project, cell-based, uHTS hits (AID 463214); assay type: functional;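 further: antagonist potency against angiotensin II stimulated AT1 response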
T8 sequence (P30556 whole entry): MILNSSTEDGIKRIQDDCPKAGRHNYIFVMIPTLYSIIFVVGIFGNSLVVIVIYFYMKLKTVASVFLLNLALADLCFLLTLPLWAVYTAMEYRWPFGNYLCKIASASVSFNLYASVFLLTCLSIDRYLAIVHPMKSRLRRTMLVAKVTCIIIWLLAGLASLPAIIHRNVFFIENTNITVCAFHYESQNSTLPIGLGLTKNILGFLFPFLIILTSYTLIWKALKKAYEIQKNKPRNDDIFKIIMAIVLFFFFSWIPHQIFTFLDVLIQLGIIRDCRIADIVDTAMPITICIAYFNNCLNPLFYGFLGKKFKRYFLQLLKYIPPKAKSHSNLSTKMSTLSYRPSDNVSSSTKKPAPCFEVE

[15] = target: T7, Neuropeptide Y receptor type 2; test: NPY-Y2 antagonist potency, selectivity check, dose response, counter-screen for NPY-Y1 antagonist project, cell-based (AID 1278); assay type: functional
Streptokinase A = target: T9, Streptokinase A (Streptococcus pyogenes serotype M1, UniProt P10520); test: S. pyogenes streptokinase expression inhibitors, potency, dose response, plasminogen activation absorbance, OD405 (AID 1914); assay type: functional, Streptococcus pyogenes M1 GAS;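 further: secreted streptokinase activity via plasminogen activation per viability signal from cell pellet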
T9 sequence (P10520 whole entry): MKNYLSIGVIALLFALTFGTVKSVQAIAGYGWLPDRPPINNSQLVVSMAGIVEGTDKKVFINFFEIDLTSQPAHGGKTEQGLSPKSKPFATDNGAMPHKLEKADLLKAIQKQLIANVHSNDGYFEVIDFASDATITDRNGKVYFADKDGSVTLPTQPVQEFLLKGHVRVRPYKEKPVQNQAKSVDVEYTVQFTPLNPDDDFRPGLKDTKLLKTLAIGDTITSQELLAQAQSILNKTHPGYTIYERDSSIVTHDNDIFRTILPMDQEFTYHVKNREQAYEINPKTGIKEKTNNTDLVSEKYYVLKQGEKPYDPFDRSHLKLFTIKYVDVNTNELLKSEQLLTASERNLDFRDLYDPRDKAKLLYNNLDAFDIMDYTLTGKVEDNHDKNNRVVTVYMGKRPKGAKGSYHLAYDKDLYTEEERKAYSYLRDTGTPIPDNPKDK

[16] = Luminescence Cell-Based Dose Response HTS to Identify Activators of Luciferase Translation or Activity in H4 […] Cells. [Related pubchem assays: 1829 (Project Summary), 1814 (Primary HTS)]; assay type: functional
[17] = tested on: Streptococcus sp. 'group A'; test: growth inhibition of control SK(-) GAS strain, dose response, counter-screen for streptokinase expression inhibitor project, luminescence, kanamycin, BacTiterGlo, confirmation (AID 1900); assay type: functional, organism-based
Streptococcus = test: Group A Streptococcus viability loss, dose response, counter-screen for streptokinase expression inhibitor project, luminescence, BacTiterGlo (AID 1915); assay type: functional, organism-based;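 further: potency for reduction of bacterial viability or growth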
[18] = target: T6, Neuropeptide Y receptor type 1; test: NPY-Y1 receptor antagonist potency, dose response, cell-based (AID 1277); assay type: functional
H4 = test: Luminescence Cell-Based Dose Response HTS to Identify Activators of 5'UTR Stem-Loop Driven Prion Protein mRNA Translation in H4 Neuroglioblastoma Cells. [Related pubchem assays: 1829 (Project Summary), 1814 (Primary HTS)]; assay type: functional; conditions: Homo sapiens

T5 sequence (Q8VNN2 whole entry): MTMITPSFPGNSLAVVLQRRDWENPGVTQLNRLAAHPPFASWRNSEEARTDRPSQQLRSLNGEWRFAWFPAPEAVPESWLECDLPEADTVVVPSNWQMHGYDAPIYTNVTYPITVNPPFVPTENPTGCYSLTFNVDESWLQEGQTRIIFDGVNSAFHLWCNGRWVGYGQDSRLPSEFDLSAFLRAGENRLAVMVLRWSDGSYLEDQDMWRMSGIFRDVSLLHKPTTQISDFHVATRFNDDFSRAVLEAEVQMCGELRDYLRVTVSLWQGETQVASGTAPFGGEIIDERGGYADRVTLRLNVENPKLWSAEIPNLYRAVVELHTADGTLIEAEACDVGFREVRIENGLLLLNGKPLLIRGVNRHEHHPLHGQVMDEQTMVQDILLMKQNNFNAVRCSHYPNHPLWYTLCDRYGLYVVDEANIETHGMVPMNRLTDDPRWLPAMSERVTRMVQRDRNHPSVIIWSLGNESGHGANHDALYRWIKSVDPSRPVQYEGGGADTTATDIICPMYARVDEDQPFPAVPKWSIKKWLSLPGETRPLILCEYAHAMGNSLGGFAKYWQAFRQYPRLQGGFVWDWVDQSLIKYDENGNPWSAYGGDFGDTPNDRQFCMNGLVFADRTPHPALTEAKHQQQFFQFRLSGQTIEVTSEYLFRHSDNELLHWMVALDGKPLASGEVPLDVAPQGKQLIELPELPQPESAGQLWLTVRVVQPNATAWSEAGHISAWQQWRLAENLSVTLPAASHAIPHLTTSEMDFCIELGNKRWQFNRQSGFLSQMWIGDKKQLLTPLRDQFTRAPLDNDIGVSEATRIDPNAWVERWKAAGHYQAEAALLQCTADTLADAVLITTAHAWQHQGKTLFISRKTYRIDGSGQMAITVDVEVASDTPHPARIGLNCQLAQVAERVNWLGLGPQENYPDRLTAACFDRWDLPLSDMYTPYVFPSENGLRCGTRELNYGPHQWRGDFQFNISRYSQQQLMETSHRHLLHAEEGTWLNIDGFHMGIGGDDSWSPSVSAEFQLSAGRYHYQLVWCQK
T2 sequence (Q00975 whole entry, the tested form may be a part): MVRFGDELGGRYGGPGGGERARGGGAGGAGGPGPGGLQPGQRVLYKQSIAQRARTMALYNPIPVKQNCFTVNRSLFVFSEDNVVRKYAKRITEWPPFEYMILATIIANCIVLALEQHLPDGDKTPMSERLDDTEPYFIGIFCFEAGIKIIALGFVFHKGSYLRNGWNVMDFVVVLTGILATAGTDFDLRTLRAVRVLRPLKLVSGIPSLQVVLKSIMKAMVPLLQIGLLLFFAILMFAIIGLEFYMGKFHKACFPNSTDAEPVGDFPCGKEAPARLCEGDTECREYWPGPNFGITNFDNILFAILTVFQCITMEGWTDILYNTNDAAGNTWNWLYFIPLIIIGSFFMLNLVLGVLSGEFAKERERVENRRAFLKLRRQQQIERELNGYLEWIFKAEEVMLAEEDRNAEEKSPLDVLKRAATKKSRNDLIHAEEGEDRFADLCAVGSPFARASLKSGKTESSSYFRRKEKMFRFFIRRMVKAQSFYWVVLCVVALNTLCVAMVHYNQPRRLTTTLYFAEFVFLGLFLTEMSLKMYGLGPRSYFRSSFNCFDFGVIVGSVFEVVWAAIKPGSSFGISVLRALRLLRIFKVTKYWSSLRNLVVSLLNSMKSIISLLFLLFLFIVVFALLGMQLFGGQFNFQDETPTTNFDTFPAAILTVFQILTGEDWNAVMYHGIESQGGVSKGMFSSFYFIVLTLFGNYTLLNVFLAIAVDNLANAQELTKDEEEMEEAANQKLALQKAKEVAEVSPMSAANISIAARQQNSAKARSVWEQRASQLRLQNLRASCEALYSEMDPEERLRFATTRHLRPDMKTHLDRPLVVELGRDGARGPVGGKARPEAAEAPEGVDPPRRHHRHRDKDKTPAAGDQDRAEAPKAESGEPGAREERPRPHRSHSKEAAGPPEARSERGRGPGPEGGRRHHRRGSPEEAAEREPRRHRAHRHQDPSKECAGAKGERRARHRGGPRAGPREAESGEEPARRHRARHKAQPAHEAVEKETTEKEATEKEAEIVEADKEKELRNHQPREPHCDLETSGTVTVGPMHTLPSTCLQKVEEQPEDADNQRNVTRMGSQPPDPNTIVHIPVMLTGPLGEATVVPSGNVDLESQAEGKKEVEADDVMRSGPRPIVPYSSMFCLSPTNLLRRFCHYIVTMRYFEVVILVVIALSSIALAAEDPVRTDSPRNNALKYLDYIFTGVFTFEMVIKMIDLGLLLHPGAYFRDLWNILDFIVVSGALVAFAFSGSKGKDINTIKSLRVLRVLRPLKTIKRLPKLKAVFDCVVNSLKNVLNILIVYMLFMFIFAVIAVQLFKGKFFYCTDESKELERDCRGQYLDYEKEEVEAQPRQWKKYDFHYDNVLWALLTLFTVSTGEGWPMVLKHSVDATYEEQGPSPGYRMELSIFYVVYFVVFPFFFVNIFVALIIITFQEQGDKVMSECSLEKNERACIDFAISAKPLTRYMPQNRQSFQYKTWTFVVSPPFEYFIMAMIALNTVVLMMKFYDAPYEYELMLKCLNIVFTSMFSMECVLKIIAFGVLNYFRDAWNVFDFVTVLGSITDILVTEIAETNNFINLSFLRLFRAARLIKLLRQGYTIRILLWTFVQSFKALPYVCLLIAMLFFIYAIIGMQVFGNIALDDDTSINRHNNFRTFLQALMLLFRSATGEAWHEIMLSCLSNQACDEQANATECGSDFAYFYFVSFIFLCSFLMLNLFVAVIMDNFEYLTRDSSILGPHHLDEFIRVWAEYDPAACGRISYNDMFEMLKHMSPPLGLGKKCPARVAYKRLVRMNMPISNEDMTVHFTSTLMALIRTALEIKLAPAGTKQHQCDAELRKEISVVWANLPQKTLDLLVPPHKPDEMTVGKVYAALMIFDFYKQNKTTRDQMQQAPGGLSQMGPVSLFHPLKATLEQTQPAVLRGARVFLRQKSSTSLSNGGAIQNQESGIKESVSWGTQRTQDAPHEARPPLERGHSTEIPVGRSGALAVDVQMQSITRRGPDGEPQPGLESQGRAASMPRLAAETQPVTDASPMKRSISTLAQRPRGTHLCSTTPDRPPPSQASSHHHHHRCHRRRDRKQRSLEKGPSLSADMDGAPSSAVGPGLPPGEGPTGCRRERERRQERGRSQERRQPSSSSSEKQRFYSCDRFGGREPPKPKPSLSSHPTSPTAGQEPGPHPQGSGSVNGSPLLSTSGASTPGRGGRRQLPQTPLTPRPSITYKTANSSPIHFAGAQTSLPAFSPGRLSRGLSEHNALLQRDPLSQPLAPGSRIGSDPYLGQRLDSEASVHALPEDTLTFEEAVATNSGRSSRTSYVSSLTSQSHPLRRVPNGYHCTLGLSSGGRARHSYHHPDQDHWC
T2 sequence (Q02410 whole entry, the tested form may be a part): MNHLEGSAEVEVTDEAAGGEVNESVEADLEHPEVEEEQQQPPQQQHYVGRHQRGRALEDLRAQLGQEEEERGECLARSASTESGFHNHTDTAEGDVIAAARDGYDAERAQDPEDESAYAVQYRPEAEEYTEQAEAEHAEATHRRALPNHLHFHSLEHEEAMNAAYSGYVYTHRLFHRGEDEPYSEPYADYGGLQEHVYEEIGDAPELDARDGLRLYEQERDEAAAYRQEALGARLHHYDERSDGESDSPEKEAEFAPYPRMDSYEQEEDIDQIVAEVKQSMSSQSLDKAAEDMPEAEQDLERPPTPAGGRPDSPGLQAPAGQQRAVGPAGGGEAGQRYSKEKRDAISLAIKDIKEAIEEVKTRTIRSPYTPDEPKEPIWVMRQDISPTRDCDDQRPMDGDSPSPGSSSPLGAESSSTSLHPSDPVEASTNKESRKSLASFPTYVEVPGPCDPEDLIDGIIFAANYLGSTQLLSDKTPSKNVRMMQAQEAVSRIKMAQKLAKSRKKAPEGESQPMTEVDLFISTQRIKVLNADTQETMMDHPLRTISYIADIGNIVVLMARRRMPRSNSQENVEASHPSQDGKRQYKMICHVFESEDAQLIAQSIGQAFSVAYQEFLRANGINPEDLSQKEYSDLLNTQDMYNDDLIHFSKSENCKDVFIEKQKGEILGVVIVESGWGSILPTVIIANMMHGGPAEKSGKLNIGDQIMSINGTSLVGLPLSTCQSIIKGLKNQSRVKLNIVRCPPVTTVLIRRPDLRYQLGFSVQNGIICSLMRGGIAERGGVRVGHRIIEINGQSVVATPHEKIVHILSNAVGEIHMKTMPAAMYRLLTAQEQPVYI
Sequence of Eukaryotic translation initiation factor 4E (P63073 whole entry): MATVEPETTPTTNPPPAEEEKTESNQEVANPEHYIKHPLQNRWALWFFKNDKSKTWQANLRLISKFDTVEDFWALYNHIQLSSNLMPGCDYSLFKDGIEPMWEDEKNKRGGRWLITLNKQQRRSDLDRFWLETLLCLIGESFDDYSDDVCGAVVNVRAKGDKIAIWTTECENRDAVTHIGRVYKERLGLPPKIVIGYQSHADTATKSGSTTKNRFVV
Sequence of Nonstructural protein 1 (Q194T2 whole entry): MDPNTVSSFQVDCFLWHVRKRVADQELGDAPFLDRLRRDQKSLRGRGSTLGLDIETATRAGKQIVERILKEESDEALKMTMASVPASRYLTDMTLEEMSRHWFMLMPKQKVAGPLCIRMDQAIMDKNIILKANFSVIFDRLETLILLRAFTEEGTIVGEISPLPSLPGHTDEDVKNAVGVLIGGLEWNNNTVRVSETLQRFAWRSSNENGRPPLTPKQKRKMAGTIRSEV
Sequence of G-protein coupled receptor 55 (Q9Y2T6 whole entry): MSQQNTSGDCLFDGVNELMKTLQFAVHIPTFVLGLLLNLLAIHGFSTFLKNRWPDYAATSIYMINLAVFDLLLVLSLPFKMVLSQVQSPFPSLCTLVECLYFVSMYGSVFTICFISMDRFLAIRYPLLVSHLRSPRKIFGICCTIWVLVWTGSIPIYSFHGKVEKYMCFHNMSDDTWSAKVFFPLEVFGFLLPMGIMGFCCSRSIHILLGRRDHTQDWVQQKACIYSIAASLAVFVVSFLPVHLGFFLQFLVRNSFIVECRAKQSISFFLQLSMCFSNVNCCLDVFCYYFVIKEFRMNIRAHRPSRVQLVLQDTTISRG

## O=C(O)c1ccc(N2C(=O)/C(=C/c3ccc(-c4ccc([N+](=O)[O-])cc4)o3)C=C2c2ccccc2)cc1
Nonstructural protein 1
  IC50: 6.04 µM (active)
[1]
  IC50: 0.417 µM (active)
[2]
  CC50: 15.8 µM (active)
Leucine aminopeptidase
  IC50: 21.4 µM (active)
[3]
  IC50: > 50 µM (inactive)
[4]
  IC50: > 50 µM (active)
Protein RecA
  EC50: > 380 µM (inactive)
[5]
  AC50: 56.7 µM (active)
[6]
  IC50: < 0.5 µM (active)
[7]
  IC50: 5.56 µM (active)
Beta-galactosidase [8]
  IC50: 33.8 µM (active)
[9]
  IC50: 9.86 µM (active) and 3.93 µM (active)

## OC1(c2ccccc2)CCN(Cc2ccccc2)C2CCCCC21 (stereo not drawn)
[10]
  IC50: 10.2 µM (not active)
[11]
  IC50: 4.38 µM (active)

## Cc1ccccc1/C=C/c1nc2ccccc2c(=O)n1CCc1ccccc1
[10]
  IC50: 4.26 µM (active)
[11]
  IC50: 5.52 µM (active)

## Cc1ccc(N/N=C2/C(=O)Nn3c2nc(C)cc3=O)cc1
Leucine aminopeptidase
  IC50: 86.1 µM (active)
Beta-galactosidase [12]
  EC50: > 40 µM (inactive)
[13]
  EC50: > 100 µM (active)
[14]
  IC50: > 40 µM (not active)

## Clc1ccc(-c2csc(Nc3ccccc3)[n+]2Cc2ccco2)c(Cl)c1
[15]
  IC50: > 35 µM (not active)
Streptokinase A
  EC50: 2.27 µM (active)
[16]
  EC50: > 120 µM (not active)
[17]
  EC50: 12.3 µM (active)
Streptococcus
  EC50: > 150 µM (not active)
[18]
  IC50: > 35 µM (not active)
H4
  EC50: 51.2 µM (active)

## COc1cc([N+](=O)[O-])cc(/C=C2/SC(=S)N(Cc3ccccc3)C2=O)c1O
[4]
  IC50: 8.82 µM (active)
